# Activity calls are given as the source filed them. How the calls were made is not given here.
# Molecular target: Regulator of G-protein signaling 16 (Homo sapiens) (UniProt O15492)
# Assay: small molecules altering RGS16 binding to Galphao – biochemical, bead-based flow cytometry, multiplex, dose response (AID 1888)
# Settings: not given
# Regulator of G-protein signaling 16 (Homo sapiens), sequence (O15492 whole entry, looked up): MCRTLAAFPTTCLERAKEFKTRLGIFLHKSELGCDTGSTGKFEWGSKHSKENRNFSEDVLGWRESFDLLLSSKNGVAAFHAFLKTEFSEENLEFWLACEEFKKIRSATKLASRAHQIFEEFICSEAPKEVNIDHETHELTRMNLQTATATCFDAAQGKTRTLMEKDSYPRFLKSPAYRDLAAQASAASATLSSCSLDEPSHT
row,SMILES,EC50
1,CN(C)[C@@H]1C(=O)C(C(=O)NCN2CCCC2)=C(O)[C@@]2(O)C(=O)C3=C(O)c4c(O)cccc4[C@@](C)(O)C3CC12 (some centres not stated),7.31 µM
2,NS(=O)(=O)c1ccc(N/N=C/c2ccc(O)c(O)c2O)c([N+](=O)[O-])c1,1.66 µM
3,CCOC(=O)N=Nc1c(O)n(C)c2ccccc12,> 30 µM (inactive)
4,CCOC(=O)/C(C(=O)Nc1ccccc1Cl)=C1/NC(C)(C)Cc2ccccc21,inactive
5,CC(C)Sc1nc2ccc(N3C(=O)C4CCCCC4C3=O)cc2s1 (configuration not stated),> 30 µM (inactive)
6,CCOC(=O)C1=C(C)NC(C)=C(C(=O)OCCNC(=O)c2cccnc2)C1c1cccc([N+](=O)[O-])c1 (configuration not stated),> 30 µM (inactive)
7,O=C1CCCC2=C1C(c1cccs1)n1ncnc1N2 (configuration not stated),> 30 µM (inactive)
8,COc1ccc(Br)cc1/C=N/Nc1cccc(C(=O)O)c1,> 30 µM (inactive)
9,O=c1[nH]c(=S)n(Cc2ccco2)c(O)c1C=NCc1cccs1,> 30 µM (inactive)

# Same assay, conditions: measured here: Ki for RGS16-Galphao binding
row,SMILES,Ki [µM]
1,CN1CCN(C2=C(Cl)C(=O)C(c3cnc(N4CCCCC4)s3)=C(Cl)C2=O)CC1,0.15
2,O=C1C(Cl)=C(N2CCCCC2)C(=O)C(Cl)=C1c1cnc(N2CCCCC2)s1,1.34
3,Cc1cc(C)c2c(=O)n(CC(=O)Nc3ccc(Cl)cc3)sc2n1,1.42
4,O=c1c2ccccc2sn1-c1ccc(S(=O)(=O)N2CCCC2)cc1,1.94
5,CN=c1scc(C)n1/N=C/c1ccc(O)c(O)c1O,7.14
6,O=c1c2ccccc2sn1-c1cc(S(=O)(=O)N2CCOCC2)ccc1N1CCOCC1,0.56
7,Cc1ccccc1-n1sc2cc(F)ccc2c1=O,13
8,CCN1/C(=C/C=C/C=C/c2sc3ccccc3[n+]2CC)Sc2ccccc21,5.41
9,CN(C)[C@@H]1C(=O)C(C(=O)NCN2CCCC2)=C(O)[C@@]2(O)C(=O)C3=C(O)c4c(O)cccc4[C@@](C)(O)C3CC12 (some centres not stated),5.93
10,CC(=O)N(O)CCCCCNC(=O)CCC(=O)N(O)CCCCCNC(=O)CCC(=O)N(O)CCCCCN,1.5
11,NS(=O)(=O)c1ccc(N/N=C/c2ccc(O)c(O)c2O)c([N+](=O)[O-])c1,1.35
12,CC(NC(=O)c1sc2cc([N+](=O)[O-])ccc2c1Cl)C(C)(C)C (configuration not stated),2
13,Cc1cccc(N2CCN(C(=O)Cn3sc4nc(C)cc(C)c4c3=O)CC2C)c1 (configuration not stated),1.05
14,Cc1[nH]n(-c2ccccc2)c(=S)c1C=Nc1cccc([N+](=O)[O-])c1,1.29
15,CC(=O)N1CC[n+]2c(-c3ccc([N+](=O)[O-])cc3)csc21,11
16,O=C(Cc1csc(N2CCOCC2)n1)N/N=C/c1ccc(O)c(O)c1O,9.08
17,Cc1cc(C)c2c(=O)n(CC(=O)Nc3cccc(F)c3)sc2n1,1.39
18,CCOC(=O)c1sc(NC(=O)CSc2nnc(Cc3ccccc3)o2)c(C#N)c1C,10.9
19,COCCCNC(=O)c1ccc2c3c(onc13)-c1ccccc1C2=O,4.61
20,Cc1ccccc1-n1c(-c2ccncc2)n[nH]c1=S,6.29
21,O=c1c2ccccc2sn1-c1cc(S(=O)(=O)N2CCOCC2)ccc1N1CCCC1,1.83
22,O=C(O)C[C@@H]1C(=O)O[C@@H]2C(COC(=O)c3cc(O)c(O)c(O)c3)O[C@@H](OC(=O)c3cc(O)c(O)c(O)c3)[C@@H](OC(=O)c3cc(O)c(O)c4c3[C@H]1[C@H](O)C(=O)O4)[C@H]2OC(=O)c1cc(O)c(O)c(O)c1 (some centres not stated),1.36
23,O=C(NCCCN1CCOCC1)c1sc2cc([N+](=O)[O-])ccc2c1Cl,0.77
24,O=[N+]([O-])c1ccc(Sc2cccc[n+]2[O-])c2nonc12,1.07
25,CN(C)S(=O)(=O)c1cccc(-n2sc3ccccc3c2=O)c1,1.24
26,COc1ccc(C2=CC(=O)C=CC2=O)cc1,3
27,NS(=O)(=O)c1ccc(CNC(=O)/C=C/c2ccco2)cc1,6.22

row,SMILES,Ki [µM]
1,CN(C)c1ncc(C2=C(Cl)C(=O)C(N3CCCC3)=C(Cl)C2=O)s1,4.05
2,CCOC(=O)C1CCCN(C(=O)Cn2sc3nc(C)cc(C)c3c2=O)C1 (configuration not stated),1.53
3,Cc1ccc(-n2sc3ccccc3c2=O)cc1S(=O)(=O)N1CCCCC1,1.62
4,Nc1c(C(=O)NCC2CCCO2)sc2nc3c(c(-c4ccco4)c12)CC/C3=C\c1ccco1 (configuration not stated),2.21
5,O=c1c2ccccc2sn1-c1ccccc1,1.37
6,CCN(CC)S(=O)(=O)c1cccc(C(=O)N/N=C/c2ccc(O)c(O)c2O)c1,4.14
7,O=C1CCC(=O)N(O)CCCCCNC(=O)CCC(=O)N(O)CCCCCNC(=O)CCC(=O)N(O)CCCCCN1,1.82
8,O=C(COc1ccccc1C(=O)N/N=C\c1ccc(O)c(O)c1)N/N=C/c1ccc(O)c(O)c1,3.24
9,CCOc1ccccc1-c1c2cc(O)c(=O)cc-2oc2cc(O)c(O)cc12,11.3
10,C/C(=N/NC(=O)c1cc(O)c(O)c(O)c1)c1ccc([N+](=O)[O-])cc1,15.8
11,O=C1OCC2OC(O)C(O)C(O)C2OC(=O)c2cc(O)c(O)c(O)c2-c2c(O)c(O)c3oc(=O)c4c(c(O)c(O)c5oc(=O)c2c3c54)-c2c1cc(O)c(O)c2O (configuration not stated),13.4
12,Cc1cc(Cl)ccc1N=c1ssnc1Cl,7.19
13,CC1(C)OC(=O)C(=Cc2ccc(-c3ccc(S(N)(=O)=O)cc3)o2)C(=O)O1,9.64
14,COC(=O)CCC(=O)Nc1sc(C)c(C)c1C(N)=O,5.32
15,Cc1[nH]n(-c2ccccc2)c(=S)c1C=NCCCN=Cc1c(C)[nH]n(-c2ccccc2)c1=S,7.13
16,CCCNC(=O)Cn1sc2nc(C)cc(C)c2c1=O,1.42
17,COc1ccc(OC)c(CCNC(=O)Cn2sc3nc(C)cc(C)c3c2=O)c1,1.43
18,O=C(OCC1O[C@@H](OC(=O)c2cc(O)c(O)c(O)c2)[C@@H](OC(=O)c2cc(O)c(O)c(O)c2)[C@@H](OC(=O)c2cc(O)c(O)c(O)c2)[C@@H]1OC(=O)c1cc(O)c(O)c(O)c1)c1cc(O)c(O)c(O)c1 (some centres not stated),4.68
19,CCNc1ccc2noc3c2c1C(=O)c1ccccc1-3,23.7
20,CCN=c1scc(C)n1/N=C/c1ccc(O)c(O)c1O,15.1
21,Cc1ccc(NC(=O)Cn2sc3nc(C)cc(C)c3c2=O)c(Cl)c1,0.71
22,CCC(=O)NC1=C(Cl)C(=O)C(NC(=O)CC)=C(Cl)C1=O,0.68
23,O=C(O[C@@H]1OC2COC(=O)c3cc(O)c(O)c(O)c3-c3c(cc(O)c(O)c3O)C(=O)O[C@@H]([C@H]1O)[C@@H]2O)c1cc(O)c(O)c(O)c1,5.42
24,CCN1/C(=C/C(C)=C/c2sc3ccccc3[n+]2CC)Sc2ccccc21,7.85
25,CC(=O)OCCCNc1cc(Sc2nc3ccccc3s2)c2nonc2c1[N+](=O)[O-],8.45
26,CCC(=O)NC(c1ccc(C)cc1)c1cc([N+](=O)[O-])c2cccnc2c1O (configuration not stated),9.46
